Experiment [1] relates to oedema of the ear of the mouse induced by topical application of arachidonic acid. To be noted: conventional agents, general statement on the model; cited from earlier work.
Experiment [2] shares this test system. Description: oedema of the ear of the mouse induced by topical application of arachidonic acid (in vivo topical anti-inflammatory activity). As to conditions: for % Inhibition of the oedema After 1 h: 1 h after arachidonic acid; for % Inhibition of the oedema After 1 h / % Inhibition of the oedema After 2 h: each active 2% in acetone solution, topical, 25 μl twice daily for 4 days plus last application 2 h before arachidonic acid, vs other ear pretreated with acetone only; for % Inhibition of the oedema After 2 h: 2 h after arachidonic acid; for anti-inflammatory activity (in words): in vivo topical application.
Excerpt: The test used to evaluate this activity is that of oedema of the ear of the mouse induced by topical application of arachidonic acid. According to this model, the topical application of arachidonic acid to the ear causes an inflammation which is characterized by the rapid development of an oedema, the latter becoming maximum at the end of one hour after application. The oedematous response is then quantified by measuring the thickness of the ear.
The exact operating protocol is the following: the mice are first of all pretreated with the active product(s) to be evaluated, two topical applications per day (2×25 μl; one application in the morning and the other in the evening) being carried out on one of their ears of an acetone solution containing, at a given concentration, this or these active principle(s); this pretreatment is carried out for four consecutive days. Then, on the fifth day, the mice receive a last application (25 μl) of the solution containing the active principle(s) to be tested, which takes place two hours before the application to the ear thus pretreated of the arachidonic acid intended to produce the oedema (25 μl of a THF/methanol solution containing 4 weight % of arachidonic acid). The oedematous response is then quantified by measuring the thickness of the ear 1 hour and 2 hours after application of the arachidonic acid solution.

Here are results for five compounds from US5849776A, “Medicaments based on metronidazole or on a synergic mixture of metronidazole and clindamycin” (Centre International de Recherches Dermatologiques Galderma …, priority 1994, dated 1998).

Entries after “also recorded” stand apart in the source; their conditions may differ.

Regarding `CCCCC1C(=O)N(c2ccccc2)N(c2ccccc2)C1=O` [phenylbutazone], the “inhibition in this model (in words)” value in experiment [1] was “good inhibitors in this model”.

On to `COc1ccc2c(c1)c(CC(=O)O)c(C)n2C(=O)c1ccc(Cl)cc1` [indomethacin], for which the “inhibition in this model (in words)” value in experiment [1] is recorded as “good inhibitors in this model”.

On to `Cc1ncc([N+](=O)[O-])n1CCO` [Metronidazole, 2-methyl-5-nitroimidazole-1-ethanol], for which, in experiment [2], the “% Inhibition of the oedema After 1 h” value stood at 20%, the “% Inhibition of the oedema After 2 h” value is given as 36% and the “anti-inflammatory activity (in words)” value was “good anti-inflammatory activity after in vivo topical application”.

Take `CCC[C@@H]1C[C@@H](C(=O)N[C@@H]([C@H]2O[C@H](SC)[C@H](O)[C@@H](O)[C@H]2O)[C@H](C)Cl)N(C)C1` [Clindamycin]: in experiment [2], the “% Inhibition of the oedema After 1 h” value is “(ni)”; the “% Inhibition of the oedema After 2 h” value is reported as “(ni)”; the “anti-inflammatory activity (in words)” value was “does not, by itself, have any significant activity; also recorded: no, or substantially no, anti-inflammatory activity”.

With `COc1ccc2cc([C@H](C)C(=O)O)ccc2c1` [naproxen], the “inhibition in this model (in words)” value in experiment [1] is “good inhibitors in this model”.
